Source: patent publication US20150141460A1, “Anti-inflammatory Compositions” (Cambridge Enterprise Limited, priority 2007, published 2015)

Tests used:
[1] = test system: LPS-induced TNF-α production; assay: Sub-lethal LPS-induced endotoxemia in mice, serum TNF-α by ELISA; type: in vivo; conditions: mice; doses above 1 μg/mouse; subcutaneous or oral route
Experimental: FIGS. 5A-5E show representative dose response curves for the inhibition of LPS induced TNF-α production in vivo in a murine model of sub-lethal endotoxemia. In each experiment, groups of six mice received pre-treatment with the five compounds (FIG. 5A: (II); FIG. 5B: (III); FIG. 5C: (V); FIG. 5D: (I′) and FIG. 5E: (IV)) at various doses, via either the oral route (circles) or subcutaneous route (triangles). 30-60 mins later, animals were challenged with LPS via the intraperitoneal route, and serum was prepared from a terminal bleed 3 hours later. The level of TNF-α in the blood was measured by ELISA, and the degree of inhibition of LPS-induced TNF-α production (calculated as the concentration of TNF-α in mice exposed to LPS minus the concentration of TNF-α in mice which received a sham exposure to endotoxin-free PBS) is shown on the Y-axis of each graph as the mean of six animals, with whiskers representing SEMs. The concentration of TNF-α in mice receiving LPS but no BSCI treatment was typically 5,000 to 6,000 pg/ml on average (compared to <10 pg/ml in unchallenged mice). The ED50 was estimated by linear interpolation of the presented graphs. The X-axis of each graph represents the dose of each compound administered to each mouse in the group in units of mg (1E-07 to 1).
In this assay, mice are given a non-specific pro-inflammatory challenge using bacterial endotoxin (LPS), and the extent of the systemic inflammatory response (measured by serum levels of the central pro-inflammatory cytokine TNF-α, which is essentially absent from the blood under normal conditions, but is rapidly elevated in response to a wide range of inflammatory stimuli). We have selected this model even though it is not, itself, a particularly close model of any human inflammatory disease condition, but because TNF-α is known to be important in very many diseases (including rheumatoid arthritis, autoimmune disorders, Crohn's Disease, atherosclerosis, asthma and many more). Consequently, agents which suppress TNF-α production are already used clinically (e.g. Enbrel™ and other anti-TNF-α antibody products) to treat a wide range of such diseases.
Mice (in groups of 6) were pretreated with various doses of each compound, either by the subcutaneous route 30 mins prior to LPS challenge, or by the oral route (via gavage) 60 mins prior to LPS. The mice were then challenged with an intraperitoneal injection of 750 μg of bacterial LPS and sacrificed 3 hours later. Serum was prepared from a terminal bleed by cardiac puncture, and the concentration of TNF-α is determined by ELISA (R&D Systems). In each experiment, a group of 6 mice receive no LPS to act as a negative control, and a second group receive only LPS (with no candidate inhibitor). […]

[2] = test system: SDF-1α induced migration of THP-1 cells; assay: ChemoTx transwell migration assay, SDF-1α induced migration of THP-1 cells; type: cell-based; conditions: Homo sapiens; THP-1 cell line; maximal dose of chemoattractant; read-out: ED50 SDF-1α induced migration
Experimental: In principle, this assay consists of two chambers separated by a porous membrane. The chemoattractant is placed in the lower compartment and the cells are placed in the upper compartment. After incubation for a period at 37° C. the cells move towards the chemoattractant, and the number of cells in the lower compartment is proportional to the chemoattractant activity (relative to a series of controls).
Next, the chemoattractant solution to be placed in the lower compartment is prepared. For example, MCP-1 is diluted in GBSS+BSA to give a final concentration of 25 ng/ml. This is divided into two pots, as for the cell suspension. To one pot, the test compound is added to the same final concentration as was added to the cell suspension, while to the other pot an equal volume of GBSS+BSA plus vehicle as appropriate (e.g., not more than 1% DMSO) is added. Alternatively, other chemokines may be used (SDF-1α at 7.5 ng/ml; RANTES at 50 ng/ml; IL-8 at 10 ng/ml using neutrophils as the target cell population). […]
The impact of the test substance is calculated by comparing the chemoattractant-induced migration which occurred in the presence or absence of various concentrations of the test substance. Typically, the inhibition of migration is expressed as a percentage of the total chemoattractant-induced migration which was blocked by the presence of the compound. […]

In the case of CC(C)(C)C(=O)N[C@H]1CCCNC1=O [Compound (I′), (S)-3-(2′,2′-dimethylpropanoylamino)-tetrahydropyridin-2-one], the “suppression of LPS-induced TNF-α levels” value [1] is reported as “more than 90%” and the EC50 [2] is reported as 0.05 nM.
